From patent publication WO2014051359A1, “Pharmaceutical composition comprising neferine as active ingredient for preventing or treating hepatoma” (Pukyong National University, priority 2012, dated 2014)

Experiments:
[1] = test system: Hep3B cells transformed with GFP-LC3B plasmid; experiment: Autophagosome formation in GFP-LC3B transformed cells, fluorescence microscopy; format: cell-based; details: 20 μM, over time (6, 12, 18, 24)
Sk-Hep1 = experiment: Cell viability assay (WST-1), Sk-Hep1; format: cell-based
Hep3B [2] = experiment: Immunofluorescence, cleaved caspase-8 and -3; format: cell-based; details: 15 μM, 12 h; vs untreated
HUVECs = experiment: Tube formation assay (angiogenesis, in vitro); format: cell-based, human; details: for degree of tube formation (total tube length, converted to percent): 18 h (untreated 222)
Hep3B [3] = experiment: Western blot of Bcl-2 family and apoptotic proteins; format: cell-based; details: 15, 20, 25 μM, 24 h
Hep3B [4] = experiment: DAPI assay, nuclear condensation / apoptosis induction; format: cell-based; details: 20, 25 μM
Hep3B [5] = experiment: Immunofluorescence, p21Waf1/Cip1; format: cell-based; details: 15 μM, 12 h; vs untreated
[6] = Cell viability assay (WST-1), THLE-3; format: cell-based; details: human, thle-3 cells, THLE-3, 30 μM, read-out: survival rate of the cells
THLE-3 = experiment: Cell viability assay (WST-1), THLE-3; format: cell-based; details: THLE-3, 5-30 μM, 24 h
Hep3B [7] = experiment: Cell viability assay (WST-1), Hep3B; format: cell-based; details: 24 h
Hep3B [8] = experiment: Cell cycle analysis by flow cytometer (propidium iodide); format: cell-based; details: for sub-G1 cell population: 24 h (untreated 1.35%)
Hep3B [9] = experiment: Western blot of LC3B; format: cell-based; details: 15, 20, 25 μM, 12 h; vs untreated
Hep3B [10] = experiment: Wound-healing assay (cell migration); format: cell-based
Hep3B [11] = experiment: Immunofluorescence, caspase-12 (endoplasmic reticulum stress); format: cell-based; details: 15 μM, 12 h
Hep3B [12] = experiment: Western blot of cell cycle-related proteins; format: cell-based; details: 15, 20, 25 μM, 24 h
Hep3B [13] = experiment: Western blot of endoplasmic reticulum chaperone proteins; format: cell-based; details: 20 μM, depending on time

SMILES: COc1ccc(C[C@@H]2c3cc(Oc4cc(C[C@@H]5c6cc(OC)c(OC)cc6CCN5C)ccc4O)c(OC)cc3CCN2C)cc1 [neferine, 4-[[(1R)-6,7-Dimethoxy-2-methyl-3,4-dihydro-1H-isoquinolin-1-yl]methyl]-2-[[(1R)-6-methoxy-1-[(4-methoxyphenyl)methyl]-2-methyl-3,4-dihydro-1H-isoquinolin-7-yl]oxy]phenol]
- number of autophagosomes in the cytoplasm (GFP-LC3B dots) [1]: 자가포식소체 수가 세포질 내에서 증가
- size and number of vacuoles [1]: 시간 의존적으로 더 크고 많이 증가
- vacuole formation in the cytoplasm [1]: 소체(vacuole) 형성이 발생
- viability at 30 µM (Sk-Hep1; Homo sapiens, SK-HEP1, 24 h, read-out: survival rate of the cells): ~90%
- cytotoxicity (Sk-Hep1; Sk-Hep1, 5-30 μM, 24 h): did not show cytotoxicity
- cleaved caspase-3 expression (Hep3B [2]): markedly expressed
- cleaved caspase-8 expression (Hep3B [2]): markedly expressed
- degree of tube formation (total tube length, converted to percent) (HUVECs; 10 μM): 216%
- degree of tube formation (total tube length, converted to percent) (HUVECs; 20 μM): 202%
- degree of tube formation (total tube length, converted to percent) (HUVECs; 30 μM): 146%
- formation of cellular vascular structures (HUVECs; 10, 20, 30 μM, 18 h): suppression of the formation of cellular vascular structures
- tube length (px), concentration dependence (HUVECs; 10, 20, 30 μM, 18 h): tube length (px) is reduced depending on the neferrin concentration
- Bak protein expression (Hep3B [3]): significantly increased
- Bax protein expression (Hep3B [3]): slightly increased
- Bid protein expression (Hep3B [3]): slightly increased
- Bim protein expression (Hep3B [3]): slightly increased
- Puma protein expression (Hep3B [3]): significantly increased
- caspase-3 protein expression (Hep3B [3]): decrease depending on the treatment concentration
- cleaved PARP protein expression (Hep3B [3]): markedly increased
- cleaved caspase-6 protein expression (Hep3B [3]): markedly increased
- nuclear membrane changes (shrinkage, blebbing) (Hep3B [4]; 6 h after treatment, vs untreated): 세포들의 응축(shrinkage) 및 파열(blebbing)과 같은 핵 막 변화가 나타나는
- nuclear condensation (apoptosome formation) (Hep3B [4]; 24 h after treatment): 핵 응축(apoptosome formation)이 관찰되었다
- expression level of p21 Waf1/Cip1 protein around the nucleus in the cytoplasm (Hep3B [5]): 두드러지게 증대
- viability at 24 h, 30 µM [6]: ~90%
- cytotoxicity (THLE-3): did not show cytotoxicity
- cell suppression (Hep3B [7]; 10 μM or more): marked cell suppression
- cell viability (concentration dependence) (Hep3B [7]; 5-30 μM): significant decrease in cell viability depending on the neferrin treatment concentration
- viability at 30 µM (Hep3B [7]; Homo sapiens, read-out: cell viability): < 10%
- sub-G1 cell population (Hep3B [8]; 15 μM): 4.78%
- increase of G1/S phase compared to untreated group (Hep3B [8]; 20 μM, 24 h): approximately 9%
- sub-G1 cell population (Hep3B [8]; 20 μM): 16.01%
- sub-G1 cell population (concentration dependence) (Hep3B [8]; 15, 20, 25 μM, 24 h): sub-G1 cell population increases in proportion to the neferrin treatment concentration
- expression of LC3B around the membrane (Hep3B [9]): 농도 의존적으로 증가
- inhibition at 15 µM (Hep3B [10]; Homo sapiens, Hep3B, 15 μM, 72 h, vs increased migration in untreated group, read-out: reduction of cell coverage area): ~20%
- cell migration (Hep3B [10]; images at 12 h intervals): cell migration was suppressed depending on the neferrin treatment concentration
- expansion of the endoplasmic reticulum (caspase-12 staining) (Hep3B [11]): 소포체의 확장을 관찰
- CDK4 protein expression (Hep3B [12]): down regulation
- E2F-1 protein expression (Hep3B [12]): down regulation
- c-Myc protein expression (Hep3B [12]): down regulation
- cyclin D1 protein expression (Hep3B [12]): down regulation
- cyclin D3 protein expression (Hep3B [12]): down regulation
- p21 Waf1/Cip1 protein expression (Hep3B [12]): expression was increased
- phosphorylation of cdc2 (Hep3B [12]): dephosphorylation of cdc2
- Bip protein expression level (Hep3B [13]): significantly up-regulate
- PDI protein expression level (Hep3B [13]): significantly up-regulate
- calnexin protein expression level (Hep3B [13]): significantly up-regulate
- calpain2 protein expression level (Hep3B [13]): significantly up-regulate
- caspase-12 protein expression level (Hep3B [13]): significantly up-regulate
